{"source": "ChEMBL document CHEMBL5113370", "about": "“Primed for global coronavirus pandemic: Emerging research and clinical outcome” (Eur J Med Chem, 2021)", "key": {"SARS-CoV-2 [1]": {"system": "SARS-CoV-2", "assay": "Antiviral activity against SARS-CoV 2 nCoV-2019BetaCoV/Wuhan/WIV04/2019 infected in african green monkey Vero E6 cells measured after 48 hrs", "format": "functional, organism-based", "conditions": "Severe acute respiratory syndrome coronavirus 2, nCoV-2019BetaCoV/Wuhan/WIV04/2019, Vero C1008, 48 h"}, "[2]": {"assay": "Cytotoxicity against African green monkey Vero cells by CCK8 assay method", "format": "toxicity, cell-based", "conditions": "chlorocebus sabaeus"}, "[3]": {"assay": "Selectivity index, ratio of IC50 for African green monkey Vero cells to IC50 for antiviral activity against SARS-CoV 2 nCoV-2019BetaCoV/Wuhan/WIV04/2019", "format": "toxicity", "conditions": "read-out: Ratio IC50"}, "SARS-CoV-2 [4]": {"system": "SARS-CoV-2", "assay": "Antiviral activity against SARS-CoV 2 infected in african green monkey Vero E6 cells by immunofluorescence assay", "format": "functional, organism-based", "conditions": "Severe acute respiratory syndrome coronavirus 2, Vero C1008"}}}
{"compound": "NC(=O)c1ncn([C@@H]2O[C@H](CO)[C@@H](O)[C@H]2O)n1", "note": "[RIBAVIRIN]", "values": [{"measurement": "EC50", "setting": "SARS-CoV-2 [1]", "result": 110, "unit": "µM"}, {"measurement": "CC50", "setting": "[2]", "result": "> 400", "unit": "µM"}, {"measurement": "selectivity ratio", "setting": "[3]", "result": "> 3.65"}]}
{"compound": "CCN(CC)CCOc1ccc2c(c1)C(=O)c1cc(OCCN(CC)CC)ccc1-2", "note": "[TILORONE]", "values": [{"measurement": "IC50", "setting": "SARS-CoV-2 [4]", "result": 4.09, "unit": "µM"}]}
